Source: ChEMBL document CHEMBL3525902, “In vitro metabolism of oxymetazoline: evidence for bioactivation to a reactive metabolite” (Drug Metab Dispos, 2011)

Experiments:
[1] = Drug level in NADPH supplemented rabbit liver S9 fraction treated with 50 uM oxymetazoline assessed as compound-glutathione conjugate formation in presence of glutathione by LC-MS/MS method; assay type: ADME, subcellular, Oryctolagus cuniculus
[2] = target: T1, Cytochrome P450 2C19 (Homo sapiens, UniProt P33261); test: Activity of human recombinant CYP2C19 assessed as compound formation from 50 uM oxymetazoline in presence of NADPH by LC-MS/MS method; assay type: ADME; conditions: recombinant enzyme
T1 sequence (P33261 whole entry): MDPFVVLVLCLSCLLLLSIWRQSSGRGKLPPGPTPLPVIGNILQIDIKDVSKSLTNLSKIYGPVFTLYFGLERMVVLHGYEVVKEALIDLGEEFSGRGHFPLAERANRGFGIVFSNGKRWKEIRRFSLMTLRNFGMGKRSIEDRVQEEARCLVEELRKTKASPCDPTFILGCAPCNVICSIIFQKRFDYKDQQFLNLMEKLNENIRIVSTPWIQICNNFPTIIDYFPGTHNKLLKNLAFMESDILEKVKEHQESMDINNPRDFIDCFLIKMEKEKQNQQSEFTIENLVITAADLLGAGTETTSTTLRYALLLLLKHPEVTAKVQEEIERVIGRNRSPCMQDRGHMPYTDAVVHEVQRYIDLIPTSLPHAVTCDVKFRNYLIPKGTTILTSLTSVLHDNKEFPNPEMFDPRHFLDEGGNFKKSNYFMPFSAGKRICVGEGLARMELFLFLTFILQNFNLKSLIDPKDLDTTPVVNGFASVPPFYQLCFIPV

[3] = tested on: Liver; test: Drug level in NADPH supplemented human liver S9 fraction treated with 50 uM oxymetazoline assessed as compound formation after 1 hr by LC-MS/MS method; assay type: ADME, subcellular; conditions: s9, 1 h
[4] = tested on: Liver microsome; test: Drug level in NADPH supplemented rat liver microsomes fraction treated with 50 uM oxymetazoline assessed as compound formation after 1 hr by LC-MS/MS method; assay type: ADME
[5] = Drug level in NADPH supplemented rabbit liver S9 fraction treated with 50 uM oxymetazoline assessed as compound formation after 1 hr by LC-MS/MS method; assay type: ADME, subcellular, Oryctolagus cuniculus; conditions: s9, 1 h
[6] = Drug level in NADPH supplemented rabbit liver microsomes fraction treated with 50 uM oxymetazoline assessed as compound formation after 1 hr by LC-MS/MS method; assay type: ADME, Oryctolagus cuniculus
[7] = Retention time of the compound at 50 uM by LC-MS/MS method; assay type: physicochemical
[8] = tested on: Liver microsome; test: Drug level in NADPH supplemented human liver microsomes fraction treated with 50 uM oxymetazoline assessed as compound formation after 1 hr by LC-MS/MS method; assay type: ADME
[9] = tested on: Liver; test: Drug level in NADPH supplemented rat liver S9 fraction treated with 50 uM oxymetazoline assessed as compound formation after 1 hr by LC-MS/MS method; assay type: ADME, subcellular; conditions: s9, 1 h
[10] = Drug level in NADPH supplemented rat liver S9 fraction treated with 50 uM oxymetazoline assessed as compound-glutathione conjugate formation in presence of glutathione by LC-MS/MS method; assay type: ADME, subcellular
[11] = Drug level in NADPH supplemented human liver S9 fraction treated with 50 uM oxymetazoline assessed as compound-glutathione conjugate formation in presence of glutathione by LC-MS/MS method; assay type: ADME, subcellular
[12] = Drug level in NADPH supplemented rabbit liver S9 fraction treated with 50 uM oxymetazoline assessed as compound-N-acetyl cysteine conjugate formation in presence of N-acetyl cysteine by LC-MS/MS method; assay type: ADME, subcellular, Oryctolagus cuniculus
[13] = target: T1, Cytochrome P450 2C19; test: Activity of human recombinant CYP2C19 assessed as compound formation from 50 uM oxymetazoline in presence of NADPH and glutathione by LC-MS/MS method; assay type: ADME; conditions: recombinant enzyme

SMILES	Drug metabolism [1]	Drug metabolism [2]	Drug metabolism [3]	Drug metabolism [4]	Drug metabolism [5]	Drug metabolism [6]	Retention_time [7]	Drug metabolism [8]	Drug metabolism [9]	Drug metabolism [10]	Drug metabolism [11]	Drug metabolism [12]	Drug metabolism [13]
Cc1cc(C(C)(C)CO)c(O)c(C)c1CC1=NCCN1	metabolite_detected	metabolite_detected	metabolite_detected	metabolite_detected	metabolite_detected	metabolite_detected	4.95 min	metabolite_detected	metabolite_detected	metabolite_detected	metabolite_detected	–	–
Cc1cc(C(C)(C)C)c(O)c(C)c1Cc1ncc[nH]1	–	metabolite_detected	metabolite_detected	metabolite_detected	metabolite_detected	metabolite_detected	12.36 min	metabolite_detected	metabolite_detected	–	–	metabolite_detected	–
Cc1cc(C(C)(C)CO)c(O)c(C)c1Cc1ncc[nH]1	metabolite_detected	metabolite_detected	metabolite_detected	metabolite_detected	metabolite_detected	metabolite_detected	5.64 min	metabolite_detected	metabolite_detected	metabolite_detected	metabolite_detected	–	–
CC(=O)N[C@@H](CSCc1cc(C(C)(C)C)c(O)c(C)c1CC1=NCCN1)C(=O)O	–	–	–	–	–	–	–	–	–	–	–	metabolite_detected	–
Cc1c(O)c(C(C)(C)C)cc(CSC[C@H](NC(=O)CC[C@H](N)C(=O)O)C(=O)NCC(=O)O)c1CC1=NCCN1	metabolite_detected	–	metabolite_detected	–	metabolite_detected	–	4.22 min	–	metabolite_detected	metabolite_detected	metabolite_detected	–	metabolite_detected
Cc1c(O)c(C(C)(C)C)cc(CSC[C@H](NC(=O)CC[C@H](N)C(=O)O)C(=O)NCC(=O)O)c1Cc1ncc[nH]1	metabolite_detected	–	metabolite_detected	–	metabolite_detected	–	4.65 min	–	metabolite_detected	metabolite_detected	metabolite_detected	–	metabolite_detected
Cc1c(O)c(C(C)(C)C)cc(CSC[C@H](N)C(=O)O)c1CC1=NCCN1	–	–	metabolite_detected	–	metabolite_detected	–	3.17 min	–	–	–	–	–	–
Cc1c(O)c(C(C)(C)C)cc(CSC[C@H](N)C(=O)O)c1Cc1ncc[nH]1	–	–	–	–	metabolite_detected	–	3.48 min	–	–	–	–	–	–
Cc1c(O)c(C(C)(C)CO)cc(CSC[C@H](NC(=O)CC[C@H](N)C(=O)O)C(=O)NCC(=O)O)c1CC1=NCCN1	–	–	–	–	metabolite_detected	–	3.86 min	–	–	–	–	–	–
Cc1c(O)c(C(C)(C)CO)cc(CSC[C@H](NC(=O)CC[C@H](N)C(=O)O)C(=O)NCC(=O)O)c1Cc1ncc[nH]1	–	–	–	–	metabolite_detected	–	6.34 min	–	–	–	–	–	–
